Measured values taken from patent US11987543B1, “8-(4-bromobenzylideneamino)naphthalene-1,3-disulfonic acid as an antioxidant compound” (KING FAISAL UNIVERSITY, priority 2023, dated 2024).

Assay: DPPH radical scavenging antioxidant test
Format: biochemical
Conditions: for A (absorbance read against a blank at 517 nm) / Inhibition (radical scavenging inhibition): 0.2 mL DPPH (0.75 mM), compound 3 μM in ethanol, 30 min incubation in the dark
Procedure: The antioxidant properties of the 8-(4-bromobenzylideneamino)naphthalene-1,3-disulfonic acid were studied by adding 0.2 mL DPPH (0.75 mM)) to compound 8-(4-bromobenzylideneamino)naphthalene-1,3-disulfonic acid (III) (3 μM) in ethanol. After 30 min of incubation in the dark, the absorbance was read against a blank at 517 nm. Ascorbic acid (vitamin C) was used as standard antioxidants (positive control). A blank sample was prepared by 0.2 ml of DPPH in 3 ml ethanol. A negative control sample was run using ethanol instead of the sample. The radical scavenging inhibition was calculated using the following equation: […]

Row | SMILES | A (absorbance read against a blank at 517 nm) | Inhibition (radical scavenging inhibition) (517 nm) | antioxidant potential compared to vitamin C (in words) (DPPH in vitro test, vitamin C as positive control, 517 nm)
1 | O=S(=O)(O)c1cc(S(=O)(=O)O)c2c(/N=C/c3ccc(Br)cc3)cccc2c1 [Product III, 8-(4-bromobenzylideneamino)naphthalene-1,3-disulfonic acid] | 0.21 | 50% | high potential as an antioxidant compared to vitamin C
2 | O=C1O[C@H]([C@@H](O)CO)C(O)=C1O [vit c, Ascorbic acid, reference compound] | 0.12 | 74% | –
